ChEMBL document CHEMBL1147514 (Bioorg Med Chem Lett, 2004)
“And” between values parts separate entries of the source, which are not always exact repeats. Equal entries are not always repeated.

How the values were obtained:
[1] = target: T1, Neuronal acetylcholine receptor; alpha4/beta2 (Rattus norvegicus, UniProt P09483+P12390); experiment: Inhibition of [3H]nicotine binding to Nicotinic acetylcholine receptor alpha4-beta2 from rat membranes
[2] = system: Mus musculus; experiment: Blockage of antinociceptive activity was tested in the mouse tail-flick test at 0.01 mg/kg; assay type: functional
[3] = organism: Mus musculus; experiment: Antinociceptive activity was tested in the mouse hot plate test; assay type: functional
[4] = organism: Mus musculus; experiment: Antinociceptive activity was tested in the mouse tail-flick test; assay type: functional
[5] = target: T1, Neuronal acetylcholine receptor; alpha4/beta2; experiment: Inhibition of [3H]epibatidine binding to Nicotinic acetylcholine receptor alpha4-beta2 from rat membranes
[6] = system: Mus musculus; experiment: Blockage of antinociceptive activity was tested in the mouse hot plate test at 0.01 mg/kg; assay type: functional
[7] = target: T1, Neuronal acetylcholine receptor; alpha4/beta2; experiment: [3H](+/-)-epibatidine binding to Nicotinic acetylcholine receptor alpha4-beta2 from rat membranes
[8] = organism: Mus musculus; experiment: Antinociceptive activity was tested in the mouse tail-flick test from ref 15; assay type: functional
[9] = organism: Mus musculus; experiment: Antinociceptive activity was tested in the mouse tail-flick test from ref 17; assay type: functional
[10] = organism: Mus musculus; experiment: Spontaneous activity in mice from ref 15; assay type: functional
[11] = organism: Mus musculus; experiment: Drug discrimination in mice from ref 15
[12] = target: T1, Neuronal acetylcholine receptor; alpha4/beta2; experiment: Binding affinity towards rat Nicotinic acetylcholine receptor alpha4-beta2 expressed in Xenopus oocytes using [3H]epibatidine as radioligand; assay type: cell-based, Oocyte
[13] = target: Neuronal acetylcholine receptor; alpha2/beta2 (Rattus norvegicus, UniProt P12389+P12390); experiment: Binding affinity towards rat alpha2-beta2 neuronal nAChR expressed in Xenopus oocytes using [3H]epibatidine as radioligand; assay type: cell-based, Oocyte
[14] = target: Neuronal acetylcholine receptor; alpha2/beta4 (Rattus norvegicus, UniProt P12389+P12392); experiment: Binding affinity towards rat Nicotinic acetylcholine receptor alpha2-beta4 expressed in Xenopus oocytes using [3H]epibatidine as radioligand; assay type: cell-based, Oocyte
[15] = target: T2, Neuronal acetylcholine receptor; alpha4/beta4 (Rattus norvegicus, UniProt P09483+P12392); experiment: Functional potency measured as stimulation at rat Nicotinic acetylcholine receptor alpha4-beta4 expressed in Xenopus oocytes; assay type: cell-based, Oocyte
[16] = target: T2, Neuronal acetylcholine receptor; alpha4/beta4; experiment: Binding affinity towards rat Nicotinic acetylcholine receptor alpha4-beta4 expressed in Xenopus oocytes using [3H]epibatidine as radioligand; assay type: cell-based, Oocyte
[17] = target: Neuronal acetylcholine receptor; alpha4/beta4 (Rattus norvegicus) (UniProt P09483+P12392); experiment: Functional potency measured as maximum stimulation at rat Nicotinic acetylcholine receptor alpha4-beta4 expressed in Xenopus oocytes; assay type: cell-based; settings: Oocyte
[18] = target: Neuronal acetylcholine receptor; alpha4/beta2 (Rattus norvegicus) (UniProt P09483+P12390); experiment: Functional potency measured as maximum stimulation at rat Nicotinic acetylcholine receptor alpha4-beta2 expressed in Xenopus oocytes; assay type: cell-based; settings: Oocyte
[19] = target: Neuronal acetylcholine receptor; alpha3/beta2 (Rattus norvegicus, UniProt P04757+P12390); experiment: Binding affinity towards rat Nicotinic acetylcholine receptor alpha3-beta2 expressed in Xenopus oocytes using [3H]epibatidine as radioligand; assay type: cell-based, Oocyte
[20] = target: T3, Neuronal acetylcholine receptor; alpha3/beta4 (Rattus norvegicus, UniProt P04757+P12392); experiment: Functional potency measured as stimulation at rat Nicotinic acetylcholine receptor alpha3-beta4 expressed in Xenopus oocytes; assay type: cell-based, Oocyte
[21] = target: T3, Neuronal acetylcholine receptor; alpha3/beta4; experiment: Binding affinity towards rat Nicotinic acetylcholine receptor alpha3-beta4 expressed in Xenopus oocytes using [3H]epibatidine as radioligand; assay type: cell-based, Oocyte
[22] = target: Neuronal acetylcholine receptor; alpha3/beta4 (Rattus norvegicus) (UniProt P04757+P12392); experiment: Functional potency measured as maximum stimulation at rat Nicotinic acetylcholine receptor alpha3-beta4 expressed in Xenopus oocytes; assay type: cell-based; settings: Oocyte
[23] = target: T1, Neuronal acetylcholine receptor; alpha4/beta2; experiment: Functional potency measured as stimulation at rat Nicotinic acetylcholine receptor alpha4-beta2 expressed in Xenopus oocytes; assay type: cell-based, Oocyte
[24] = organism: Mus musculus; experiment: Antinociceptive activity was tested in the mouse tail-flick test at 32.5 nM; assay type: functional
[25] = organism: Mus musculus; experiment: Blockage of antinociceptive activity of nicotine was tested in the mouse hot plate test; assay type: functional
[26] = target: Neuronal acetylcholine receptor subunit alpha-7 (Rattus norvegicus, UniProt Q05941); experiment: Inhibition of [125I]-iodo-MLA binding to Nicotinic acetylcholine receptor alpha-7 from rat brain membranes; assay type: cell membranes, Membrane
[27] = organism: Mus musculus; experiment: animal or person
[28] = organism: Mus musculus; experiment: animal or person; settings: Tail
[29] = target: T1, Neuronal acetylcholine receptor; alpha4/beta2; experiment: inhibition of [3H]nicotine binding to alpha4-beta2 nACh receptor from rat membranes from ref 18
[30] = organism: Mus musculus; experiment: Blockage of Antinociceptive activity of nicotine was tested in the mouse hot plate test; assay type: functional
[31] = organism: Mus musculus; experiment: Blockage of Antinociceptive activity of nicotine was tested in the mouse tail flick test; assay type: functional
[32] = system: Mus musculus; experiment: Antinociceptive activity was tested in the mouse hot plate test at 15 mg/kg; assay type: functional
[33] = system: Mus musculus; experiment: Antinociceptive activity was tested in the mouse tail-flick test at 15 mg/kg; assay type: functional
[34] = organism: Mus musculus; experiment: Antinociceptive activity was tested in the mouse tail-flick test at 112 nM; assay type: functional

Chain of Neuronal acetylcholine receptor; alpha2/beta4 (P12389 whole entry): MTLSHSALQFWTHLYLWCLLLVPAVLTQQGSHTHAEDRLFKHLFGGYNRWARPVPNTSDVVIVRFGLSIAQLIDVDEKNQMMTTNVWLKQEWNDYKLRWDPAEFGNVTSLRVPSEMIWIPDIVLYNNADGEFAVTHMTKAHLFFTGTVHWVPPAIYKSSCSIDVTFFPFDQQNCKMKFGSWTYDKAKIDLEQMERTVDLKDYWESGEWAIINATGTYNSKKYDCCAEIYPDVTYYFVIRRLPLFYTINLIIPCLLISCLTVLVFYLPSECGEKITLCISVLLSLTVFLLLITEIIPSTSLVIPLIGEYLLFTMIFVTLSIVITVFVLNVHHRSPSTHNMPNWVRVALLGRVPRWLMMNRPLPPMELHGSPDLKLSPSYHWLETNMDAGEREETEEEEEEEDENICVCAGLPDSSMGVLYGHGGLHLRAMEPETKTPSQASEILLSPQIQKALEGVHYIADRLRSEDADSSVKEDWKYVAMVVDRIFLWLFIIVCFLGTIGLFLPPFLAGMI
Chain of Neuronal acetylcholine receptor; alpha2/beta4 (P12392 whole entry): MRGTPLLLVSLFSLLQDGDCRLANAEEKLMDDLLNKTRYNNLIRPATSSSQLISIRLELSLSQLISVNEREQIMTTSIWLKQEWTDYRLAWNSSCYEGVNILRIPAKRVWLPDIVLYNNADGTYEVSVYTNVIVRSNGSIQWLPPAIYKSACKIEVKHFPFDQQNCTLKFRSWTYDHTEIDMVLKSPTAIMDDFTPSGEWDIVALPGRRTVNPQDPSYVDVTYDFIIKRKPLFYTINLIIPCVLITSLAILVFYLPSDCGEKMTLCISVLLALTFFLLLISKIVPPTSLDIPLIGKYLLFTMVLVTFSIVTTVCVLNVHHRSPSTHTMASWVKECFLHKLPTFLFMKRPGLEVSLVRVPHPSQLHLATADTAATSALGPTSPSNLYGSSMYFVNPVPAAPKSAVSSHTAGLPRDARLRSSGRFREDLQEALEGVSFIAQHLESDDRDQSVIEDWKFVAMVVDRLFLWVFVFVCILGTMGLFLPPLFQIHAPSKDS
Chain of Neuronal acetylcholine receptor; alpha2/beta2 (P12389 whole entry): as the sequence (P12389 whole entry) above
Chain of Neuronal acetylcholine receptor; alpha2/beta2 (P12390 whole entry): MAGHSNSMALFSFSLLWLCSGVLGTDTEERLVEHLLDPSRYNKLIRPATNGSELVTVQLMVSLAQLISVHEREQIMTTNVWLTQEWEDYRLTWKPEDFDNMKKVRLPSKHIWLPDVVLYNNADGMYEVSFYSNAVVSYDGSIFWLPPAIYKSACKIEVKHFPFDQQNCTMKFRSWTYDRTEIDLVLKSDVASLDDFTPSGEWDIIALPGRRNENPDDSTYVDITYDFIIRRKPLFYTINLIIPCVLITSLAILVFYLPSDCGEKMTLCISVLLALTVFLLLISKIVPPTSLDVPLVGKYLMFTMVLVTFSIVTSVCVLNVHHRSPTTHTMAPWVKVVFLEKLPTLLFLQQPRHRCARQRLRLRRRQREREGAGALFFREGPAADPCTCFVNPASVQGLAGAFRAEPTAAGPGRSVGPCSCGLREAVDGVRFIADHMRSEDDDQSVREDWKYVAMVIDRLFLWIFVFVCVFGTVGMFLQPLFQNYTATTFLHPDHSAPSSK
T2 sequence (P09483 whole entry): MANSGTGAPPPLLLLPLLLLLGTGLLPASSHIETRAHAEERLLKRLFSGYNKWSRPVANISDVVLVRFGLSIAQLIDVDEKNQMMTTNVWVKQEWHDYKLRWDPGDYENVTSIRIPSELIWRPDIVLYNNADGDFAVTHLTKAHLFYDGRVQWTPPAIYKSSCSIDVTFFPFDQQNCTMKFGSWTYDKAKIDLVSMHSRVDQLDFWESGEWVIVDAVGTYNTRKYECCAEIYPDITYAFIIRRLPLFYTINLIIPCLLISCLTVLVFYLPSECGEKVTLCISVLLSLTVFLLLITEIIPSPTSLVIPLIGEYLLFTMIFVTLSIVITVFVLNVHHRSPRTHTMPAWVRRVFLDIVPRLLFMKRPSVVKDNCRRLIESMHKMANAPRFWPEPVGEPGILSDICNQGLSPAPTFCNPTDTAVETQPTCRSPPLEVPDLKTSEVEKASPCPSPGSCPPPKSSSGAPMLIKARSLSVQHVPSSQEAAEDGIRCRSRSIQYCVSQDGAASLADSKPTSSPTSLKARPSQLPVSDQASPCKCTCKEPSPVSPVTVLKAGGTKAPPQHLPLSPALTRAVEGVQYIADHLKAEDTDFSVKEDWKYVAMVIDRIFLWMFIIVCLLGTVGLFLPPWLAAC
T2 sequence (P12392 whole entry): as the sequence (P12392 whole entry) above
T1 sequence (P09483 whole entry): as the sequence (P09483 whole entry) above
T1 sequence (P12390 whole entry): as the sequence (P12390 whole entry) above
Chain of Neuronal acetylcholine receptor; alpha3/beta2 (P04757 whole entry): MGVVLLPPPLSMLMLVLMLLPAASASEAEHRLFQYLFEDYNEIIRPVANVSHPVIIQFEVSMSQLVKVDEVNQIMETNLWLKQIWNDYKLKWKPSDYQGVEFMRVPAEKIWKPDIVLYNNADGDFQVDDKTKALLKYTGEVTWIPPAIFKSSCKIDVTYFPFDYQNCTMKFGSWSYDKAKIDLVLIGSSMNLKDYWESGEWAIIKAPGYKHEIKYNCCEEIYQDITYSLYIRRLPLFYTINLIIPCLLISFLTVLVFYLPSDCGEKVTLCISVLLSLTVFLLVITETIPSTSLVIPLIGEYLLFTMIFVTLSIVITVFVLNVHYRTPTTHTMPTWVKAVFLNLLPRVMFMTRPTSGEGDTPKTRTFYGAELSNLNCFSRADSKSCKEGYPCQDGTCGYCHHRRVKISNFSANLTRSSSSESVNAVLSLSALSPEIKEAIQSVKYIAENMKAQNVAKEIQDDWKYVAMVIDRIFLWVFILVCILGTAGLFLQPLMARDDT
Chain of Neuronal acetylcholine receptor; alpha3/beta2 (P12390 whole entry): as the sequence (P12390 whole entry) above
T3 sequence (P04757 whole entry): as the sequence (P04757 whole entry) above
T3 sequence (P12392 whole entry): as the sequence (P12392 whole entry) above
Chain of Neuronal acetylcholine receptor subunit alpha-7 (Q05941 whole entry): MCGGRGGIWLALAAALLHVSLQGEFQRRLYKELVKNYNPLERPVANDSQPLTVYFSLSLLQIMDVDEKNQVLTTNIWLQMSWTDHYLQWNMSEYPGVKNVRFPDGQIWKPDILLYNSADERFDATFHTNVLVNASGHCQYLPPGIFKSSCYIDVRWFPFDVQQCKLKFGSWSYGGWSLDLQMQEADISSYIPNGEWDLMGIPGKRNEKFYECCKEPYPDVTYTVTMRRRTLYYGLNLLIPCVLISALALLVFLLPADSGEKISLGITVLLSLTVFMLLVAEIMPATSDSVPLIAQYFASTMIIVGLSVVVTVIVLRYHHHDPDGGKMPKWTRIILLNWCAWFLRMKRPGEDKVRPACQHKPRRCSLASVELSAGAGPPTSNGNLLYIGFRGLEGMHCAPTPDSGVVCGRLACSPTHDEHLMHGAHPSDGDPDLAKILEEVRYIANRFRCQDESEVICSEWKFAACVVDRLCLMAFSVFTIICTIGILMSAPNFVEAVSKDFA

Compound: CN1[C@@H]2CC[C@H]1[C@H](c1ccc(Cl)nc1)C2
- Ki [1]: 0.26 nM

Compound: Clc1ncc(C2CC3CCC2N3)cc1I (stereo unspecified)
- Activity [2]: 4%
- ED50 [3]: 140 µg/kg
- ED50 [4]: 240 µg/kg
- Ki [5]: 0.008 nM
- Activity [6]: 0%

Compound: CCN1C2CCC1C(c1ccc(Cl)nc1)C2 (racemic)
- Ki [7]: 13.6 nM

Compound: Clc1ccc([C@H]2C[C@@H]3CC[C@H]2N3)cn1 [(-)-EPIBATIDINE]
- ED50 [3]: 4 µg/kg
- ED50 [4]: 6 µg/kg
- ED50 [8]: 6.1 µg/kg
- ED50 [9]: 9 µg/kg
- ED50 [10]: 1.8 µg/kg
- ED50 [11]: 1 µg/kg

Compound: c1cncc(C2CC3CCC2N3)c1 (stereo unspecified) [DESCHLOROEPIBATIDINE]
- Ki [12]: 0.0085 nM
- Ki [13]: 0.028 nM
- Ki [14]: 3.3 nM
- EC50 [15]: 982 nM
- Ki [16]: 3.2 nM
- Max [17]: 147%
- Max [18]: 112%
- Ki [19]: 0.0031 nM
- EC50 [20]: 702 nM
- Ki [21]: 11 nM
- Max [22]: 61%
- EC50 [23]: 3630 nM

Compound: CN(C)c1ccc(C2CC3CCC2N3)cn1 (stereo unspecified)
- Activity [24]: 10%
- Ki [12]: > 100 nM
- Ki [13]: > 100 nM
- Ki [19]: > 100 nM

Compound: CCCN1C2CCC1C(c1ccc(Cl)nc1)C2 (single isomer, unassigned; (-))
- Ki [1]: 10.8 nM

Compound: O=c1ccc(C2CC3CCC2N3)c[nH]1 (stereo unspecified)
- Ki [12]: ~100 nM
- Ki [13]: > 100 nM
- Ki [19]: > 100 nM

Compound: Nc1cc(C2CC3CCC2N3)cnc1Cl (stereo unspecified)
- AD50 [25]: 0.03 µg/kg and 0.06 µg/kg
- ED50 [3]: 20 µg/kg
- ED50 [4]: 20 µg/kg
- Ki [5]: 0.01 nM
- Ki [26]: 13.9 nM

Compound: CN1[C@H]2CC[C@@H]1[C@@H](c1ccc(Cl)nc1)C2
- ED50 [4]: 9 µg/kg
- Ki [1]: 0.11 nM

Compound: Fc1cc(C2CC3CCC2N3)cnc1Cl (stereo unspecified)
- ED50 [3]: 9 µg/kg
- ED50 [4]: 8 µg/kg
- Ki [5]: 0.025 nM

Compound: Clc1ccc(C2CC3CCC2N3)cn1 (stereo unspecified) [EPIBATIDINE]
- ED50 [4]: > 1000 µg/kg
- Max [17]: 71%
- Max [18]: 58%
- Max [22]: 39%
- ED50 [27]: 4 µg/kg
- ED50 [28]: 6 µg/kg

Compound: Ic1ccc(C2CC3CCC2N3)cn1 (stereo unspecified)
- Ki [5]: 0.09 nM

Compound: CC(=O)N1C2CCC1C(c1ccc(Cl)nc1)C2 (stereo unspecified)
- ED50 [4]: > 1000 µg/kg

Compound: Clc1cc(C2CC3CCC2N3)cnc1Cl (stereo unspecified)
- ED50 [3]: 30 µg/kg
- ED50 [4]: 50 µg/kg
- Ki [5]: 0.014 nM
- Ki [26]: 1.12 nM

Compound: Fc1ccc(C2CC3CCC2N3)cn1 (stereo unspecified)
- Ki [12]: 0.0092 nM
- Ki [13]: 0.0024 nM
- Ki [14]: 1.2 nM
- EC50 [15]: 239 nM
- Ki [16]: 0.48 nM
- Max [17]: 131%
- Max [18]: 41%
- Ki [19]: 0.0038 nM
- EC50 [20]: 319 nM
- Ki [21]: 2.1 nM
- Max [22]: 40%
- EC50 [23]: 254 nM
- Ki [29]: 0.037 nM

Compound: Fc1ncc([C@@H]2C[C@H]3CC[C@@H]2N3)cc1-c1ccccc1
- AD50 [30]: 2400 µg/kg
- AD50 [31]: 1000 µg/kg
- inhibition in vivo at 15 mg/kg [32]: 8%
- inhibition in vivo at 15 mg/kg [33]: 7%
- Ki [5]: 0.24 nM

Compound: Clc1ncc(C2CC3CCC2N3)cc1Br (stereo unspecified)
- ED50 [3]: 20 µg/kg
- ED50 [4]: 30 µg/kg
- Ki [26]: 152 nM

Compound: Clc1ncc(C2CC3CCC2N3)cc1-c1ccccc1 (stereo unspecified)
- ED50 [3]: 1000 µg/kg
- ED50 [4]: 700 µg/kg

Compound: Fc1ncc([C@H]2C[C@@H]3CC[C@H]2N3)cc1-c1ccccc1
- AD50 [30]: 700 µg/kg
- AD50 [31]: 80 µg/kg
- inhibition in vivo at 15 mg/kg [32]: 10%
- inhibition in vivo at 15 mg/kg [33]: 5%
- Ki [5]: 0.26 nM

Compound: [N-]=[N+]=Nc1cc(C2CC3CCC2N3)cnc1Cl (stereo unspecified) [AZIDOEPIBATIDINE]
- Ki [5]: 0.027 nM
- Ki [26]: 9.7 nM

Compound: CC(=O)OCC[N+](C)(C)C
- Max [17]: 98%
- Max [18]: 95%
- Max [22]: 100%

Compound: Cc1ccc(C2CC3CCC2N3)cn1 (stereo unspecified)
- Ki [1]: 0.13 nM

Compound: Brc1ccc(C2CC3CCC2N3)cn1 (stereo unspecified)
- Ki [12]: 0.01 nM
- Ki [13]: 0.013 nM
- Ki [14]: 0.055 nM
- EC50 [15]: 20 nM
- Ki [16]: 0.044 nM
- Max [17]: 102%
- Max [18]: 65%
- Ki [19]: 0.004 nM
- EC50 [20]: 189 nM
- Ki [21]: 0.22 nM
- Max [22]: 82%
- EC50 [23]: 94 nM

Compound: Nc1ccc(C2CC3CCC2N3)cn1 (stereo unspecified)
- Activity [34]: 57%
- Ki [12]: 0.35 nM
- Ki [13]: 0.062 nM
- Ki [14]: 3.5 nM
- EC50 [15]: 1840 nM
- Ki [16]: 4.3 nM
- Max [17]: 41%
- Max [18]: 29%
- Ki [19]: 0.077 nM
- EC50 [20]: 3240 nM
- Ki [21]: 7.2 nM
- Max [22]: 82%
- EC50 [23]: 7600 nM

Compound: O=S(=O)(OC(F)(F)F)c1ccc(C2CC3CCC2N3)cn1 (stereo unspecified)
- Ki [12]: ~100 nM
- Ki [13]: > 10 nM
- Ki [19]: ~100 nM

Compound: Fc1ncc(C2CC3CCC2N3)cc1-c1ccccc1 (racemic)
- AD50 [30]: 1200 µg/kg
- AD50 [31]: 500 µg/kg
- inhibition in vivo at 15 mg/kg [32]: 4%
- inhibition in vivo at 15 mg/kg [33]: 3%
- Ki [5]: 0.24 nM

Compound: Clc1ccc([C@@H]2C[C@H]3CC[C@@H]2N3)cn1 [(+)-EPIBATIDINE]
- ED50 [8]: 6.6 µg/kg
- ED50 [9]: 7 µg/kg
- ED50 [10]: 1.2 µg/kg
- ED50 [11]: 0.9 µg/kg
